One substance from patent US10624965B2, “Immunotherapy treatments and compositions” (SUSAVION BIOSCIENCES, INC., priority 2014, dated 2020) can be followed below.

Positions of bridges follow the written chain, without caps; N, C: chain ends. Chains are numbered I, II in the order given. No end group written: not given here.

The conditions of series [1]: in vivo. An excerpt:
(§1) It is important to note that during and after drug administration there was no change in mouse weight or behavior, indicating no overt toxicity related to treatment.

For series [2], the system named is serum cytokines and chemokines. The settings on record: mouse, in vivo. The procedure: To determine whether the responses in serum proteins would be different in tumor-bearing mice from those in healthy mice, sera were collected from female mice in which breast cancer 4T1 cells had been implanted. After the tumors had grown over a period of 10 to 12 days to a size of ˜500 mm^3, tetravalent svL4 was injected subcutaneously at doses of 0.1 and 1.0 nmol/g. Blood was withdrawn and sera prepared 4 hours after injection. The sera of untreated animals had low levels of cytokines and chemokines at 4 h. With a few proteins, such as IL-1β, IL-2, IL-6 and TNFα, the values were very low in untreated animals and upon treatment with svL4 were increased but still nearly undetectable on the array blots. […] Several cytokines that increased but were still low in amount included GM-CSF, CCL4, IGFBP-1, IL-21, lymphotoxin-α, and IL-17. Major proteins included CCL1, CCL8, CCL28, Endostatin, Fas, HVEM, IL-11, IL-12p70, IL-16, IL-27, IL-28, MIP-2, MMP-9, NOV, Soggy-1, SPARC, TIMP-2, TLR2 and VEGF-B. In some cases, the higher dose caused a higher amount of the protein, whereas with several proteins the amount was lower with the higher dose. […] A number of soluble proteins were identified as cell-surface receptors, such as Fas, HVEM and TLR2, which indicated significant shedding by activated cells. […]

Details of series [3]: species or system mice.
Excerpt: as §1

In the case of “I: VQATQSNQHTPRGGGSKK-NH2 / II: VQATQSNQHTPRGGGSK / III: VQATQSNQHTPRGGGS / IV: VQATQSNQHTPRGGGS (amide I:17-IV:C, I:18-II:C, II:17-III:C) [svL4, [(VQATQSNQHTPRGGGS)2K]2K—NH2]”, in series [1], the “change in mouse weight or behavior (overt toxicity)” value is listed as “no change”. For the same substance, the “irritation or formation of fibrous or granulomatous tissue at injection region” value in series [1] (mouse) is recorded as “no apparent irritation”. For the same substance, in series [2], the “pattern typical of a toxic "cytokine storm"” value is given as “did not occur”. The “binding of peptides to sera (antigenicity)” value in series [3] is “negative”.
